“And” between values parts separate entries of the source, which are not always exact repeats. Equal entries are not always repeated. Where two headings read alike, the source gives them in different places.
Columns and labels:
[1] = Pharmacokinetics / bioavailability after oral disintegrating tablet dose; assay type: in vivo, male Beagle dogs; details: for AUC(0-t) / AUC(0-inf) / Cmax / Tmax / half-life: po, 50.75 mg
Protocol: The purpose of this study was to evaluate the bioavailability of Compound A following administration of the ODT formulation. Animals were administered Compound A, as described in the following table.
(§1) Dosing occurred at 50.75 mg/dose. The ODT was placed on the dog's tongue and the mouth held shut for approximately 30 seconds to allow the material to dissolve. In each case, the tablet quickly formed a white paste that was adhered to the tongue and was not swallowed whole.
Whole blood samples were collected from all animals as noted in the following table for determination of test article exposure.
• Method: LC-MS/MS • Column: Restek Raptor ARC-18 2.7 μm (30×2.1 mm) • Mobile Phase A: 0.1% Formic Acid in Water • Mobile Phase B: 0.1% Formic Acid in Acetonitrile • Ionization: (±) ESI with Ion Spray • Analyte: Compound A • MRM: m/z 324.200/182.200 amu • Internal Standard: Labetalol • MRM: m/z 329.200/294.200 amu • Assay Range (LLOQ and ULOQ): 1-5000 ng/mL
Pharmacokinetic concentration-time data for Compound A was analyzed using non-compartmental methods (Phoenix® WinNonlin® Version 8.1) with nominal sampling times and dosages. The following parameters were calculated whenever possible and as data allowed: Volume of distribution, Clearance, tl/2, C0/Cmax, Tmax, % F. and AUC. Additional parameters may have been calculated as appropriate. Descriptive statistics were generated using Phoenix WinNonlin.

male Beagle dogs = test: Tolerability (cageside observations) after ODT dose; assay type: in vivo; details: 50.75 mg/dose via ODT
Protocol: as §1
Cageside Observations, General signs of toxicity including fecal and urine quality, were completed approximately 1 hour post dose on dose days.

[2] = single ODT dose 50.75 mg/dose, male Beagle dogs

In the case of `CSc1nc(N)c2ncn([C@H]3[C@H](O)[C@H](O)[C@]4(CO)C[C@H]34)c2n1` [Compound A], the “Compound A Plasma Concentration, individual animals” value (from here on “Compound A Plasma Concentration”) ([1]; 0.25 hr postdose, ODT 50.75 mg/dose, male Beagle dogs) is reported as 356 ng/mL and 309 ng/mL and 352 ng/mL and 114 ng/mL, the “Compound A Plasma Concentration” value ([1]; 0.5 hr postdose, ODT 50.75 mg/dose, male Beagle dogs) is reported as 2300 ng/mL and 1840 ng/mL and 1690 ng/mL and 622 ng/mL and the “Compound A Plasma Concentration” value ([1]; 1 hr postdose, ODT 50.75 mg/dose, male Beagle dogs) is reported as 2370 ng/mL and 2510 ng/mL and 1810 ng/mL. The “Compound A Plasma Concentration” value ([1]; 2 hr postdose, ODT 50.75 mg/dose, male Beagle dogs) was 1990 ng/mL and 2070 ng/mL and 1530 ng/mL, the “Compound A Plasma Concentration” value ([1]; 4 hr postdose, ODT 50.75 mg/dose, male Beagle dogs) was 1100 ng/mL and 1160 ng/mL and 798 ng/mL and the “Compound A Plasma Concentration” value ([1]; 8 hr postdose, ODT 50.75 mg/dose, male Beagle dogs) was 319 ng/mL and 413 ng/mL and 248 ng/mL. The “Compound A Plasma Concentration” value ([1]; 24 hr postdose, ODT 50.75 mg/dose, male Beagle dogs) was 132 ng/mL and 48.3 ng/mL and 119 ng/mL and 28.8 ng/mL, the “Percent F, Mean” value ([1]; N=4, single ODT dose, 4.66 mg/kg dose used for calculation, estimated value) was 114% and the concentration at 0.25 h ([1]; male, Beagle, dog, plasma, oral, 50.75 mg/dose, 0.25 hr postdose, N=4, ODT 50.75 mg/dose, male Beagle dogs, read-out: Compound A Plasma Concentration, Mean) was 283 ng/mL. It also gave a concentration at 0.5 h ([1]; male, Beagle, dog, plasma, oral, 50.75 mg/dose, 0.5 hr postdose, N=4, ODT 50.75 mg/dose, male Beagle dogs, read-out: Compound A Plasma Concentration, Mean) of 1610 ng/mL, a concentration at 1 h ([1]; male, Beagle, dog, plasma, oral, 50.75 mg/dose, 1 hr postdose, N=4, ODT 50.75 mg/dose, male Beagle dogs, read-out: Compound A Plasma Concentration, Mean) of 2190 ng/mL and a concentration at 1 h ([1]; male, Beagle, dog, plasma, oral, 50.75 mg/dose, 1 hr postdose, ODT 50.75 mg/dose, male Beagle dogs, read-out: Compound A Plasma Concentration, individual animals) of 2080 ng/mL. The concentration at 2 h ([1]; male, Beagle, dog, plasma, oral, 50.75 mg/dose, 2 hr postdose, N=4, ODT 50.75 mg/dose, male Beagle dogs, read-out: Compound A Plasma Concentration, Mean) was 1810 ng/mL, the concentration at 2 h ([1]; male, Beagle, dog, plasma, oral, 50.75 mg/dose, 2 hr postdose, ODT 50.75 mg/dose, male Beagle dogs, read-out: Compound A Plasma Concentration, individual animals) was 1650 ng/mL and the concentration at 4 h ([1]; male, Beagle, dog, plasma, oral, 50.75 mg/dose, 4 hr postdose, N=4, ODT 50.75 mg/dose, male Beagle dogs, read-out: Compound A Plasma Concentration, Mean) was 1010 ng/mL. The concentration at 4 h ([1]; male, Beagle, dog, plasma, oral, 50.75 mg/dose, 4 hr postdose, ODT 50.75 mg/dose, male Beagle dogs, read-out: Compound A Plasma Concentration, individual animals) was 964 ng/mL, the concentration at 8 h ([1]; male, Beagle, dog, plasma, oral, 50.75 mg/dose, 8 hr postdose, N=4, ODT 50.75 mg/dose, male Beagle dogs, read-out: Compound A Plasma Concentration, Mean) was 354 ng/mL and the concentration at 8 h ([1]; male, Beagle, dog, plasma, oral, 50.75 mg/dose, 8 hr postdose, ODT 50.75 mg/dose, male Beagle dogs, read-out: Compound A Plasma Concentration, individual animals) was 434 ng/mL. The concentration at 24 h ([1]; male, Beagle, dog, plasma, oral, 50.75 mg/dose, 24 hr postdose, N=4, ODT 50.75 mg/dose, male Beagle dogs, read-out: Compound A Plasma Concentration, Mean) was 82 ng/mL, the AUC(0-t) ([1]; male, Beagle, dog, plasma, N=4, single ODT dose 50.75 mg/dose, male Beagle dogs, read-out: AUC0-24, Mean) was 12200 ng·h/mL and the AUC(0-inf) ([1]; male, Beagle, dog, plasma, N=4, single ODT dose 50.75 mg/dose, male Beagle dogs, read-out: AUCinf, Mean) was 13000 ng·h/mL. The Cmax ([1]; male, Beagle, dog, plasma, N=4, single ODT dose 50.75 mg/dose, male Beagle dogs, read-out: Cmax, Mean) was 2250 ng/mL, the Tmax ([1]; male, Beagle, dog, plasma, N=4, single ODT dose 50.75 mg/dose, male Beagle dogs, read-out: Tmax, Mean) was 52.8 min and the half-life ([1]; male, Beagle, dog, plasma, N=4, single ODT dose 50.75 mg/dose, male Beagle dogs, read-out: t1/2, Mean (converted)) was 331 min. For the same compound, the AUC(0-t) ([1]; male, Beagle, dog, plasma, single ODT dose 50.75 mg/dose, male Beagle dogs, read-out: AUC0-24, individual animals) was 9020 ng·h/mL, the AUC(0-inf) ([1]; male, Beagle, dog, plasma, single ODT dose 50.75 mg/dose, male Beagle dogs, read-out: AUCinf, individual animals) was 9200 ng·h/mL and the Cmax ([1]; male, Beagle, dog, plasma, single ODT dose 50.75 mg/dose, male Beagle dogs, read-out: Cmax, individual animals) was 1810 ng/mL. The Tmax ([1]; male, Beagle, dog, plasma, single ODT dose 50.75 mg/dose, male Beagle dogs, read-out: Tmax, individual animals) was 60 min, the half-life ([1]; male, Beagle, dog, plasma, single ODT dose 50.75 mg/dose, male Beagle dogs, read-out: t1/2, individual animals (converted)) was 265 min and the “AUC0-24, individual animals” value [1, 2] was 13300 ng·h/mL and 12400 ng·h/mL and 14300 ng·h/mL. The “AUCinf, individual animals” value [1, 2] was 14700 ng·h/mL and 12700 ng·h/mL and 15300 ng·h/mL, the “Cmax, individual animals” value [1, 2] was 2300 ng/mL and 2370 ng/mL and 2510 ng/mL and the “Tmax, individual animals” value [1, 2] was 30 min. For the same compound, the “t1/2, individual animals” value [1, 2] was 7.51 h and 4.33 h and 5.79 h, the “Percent F, individual animals” value ([1]; single ODT dose, 4.66 mg/kg dose used for calculation, estimated from nominal dose and estimated AUCinf, 4.66 mg/kg) was 80.5% and 116% (2×) and 143% and the Tolerability (male Beagle dogs) was “well tolerated”.

— patent publication US20260151345A1, “FAST-DISSOLVING DOSAGE FORMS AND USES THEREOF” (Astrocyte Pharmaceuticals, Inc., priority 2022, published 2026)
